Laboratory results reported in patent publication US11535597B2, “Photoreactive ligands and uses thereof” (The Scripps Research Institute, priority 2017, dated 2022).

Key:
PTGR2 = PTGR2 (Homo sapiens, UniProt Q8N8N7); experiment: In vitro LCMS-based activity assay for PTGR2 (15-keto-PGE2 reductase activity); type: biochemical
Procedure: Aliquots (1 μL) of test compounds dissolved in DMSO were transferred to 1.5 mL eppendorf tubes followed by addition of recombinant human PTGR2 (44 μL, 200 nM final concentration) in freshly prepared reaction buffer (Tris Buffer, 1 mM EDTA, 50 μM TCEP, 300 μM NADPH). The resulting mixture was vortexed and then incubated at 37° C. for 20 min. Next, a 5 μL solution of 15-keto-PGE2 substrate (20 μM final concentration) in reaction buffer was added and the reaction was allowed to proceed for 30 min at 37° C. Reactions were quenched by the addition of 0.5% AcOH in ethyl acetate (800 μL), water (300 μL) and 100 μL of internal standard PGE2-d4 (30 pmol/sample) dissolved in 1:1 methanol/water. Phases were separated by centrifugation and the organic layer was collected and dried under a stream of N2, then stored at −80° C. until analysis. Directly prior to analysis, samples were reconstituted in 100 μL of MeCN:H2O (1:1, v/v) and analyzed by LC/MS/MS. All conditions were performed in triplicate and repeated at least three independent times.
The following MS parameters were used to measure the indicated metabolites by MRM (precursor ion, product ion, collision energy, polarity): PGE2-d4 (355, 275, 18), 13,14-dihydro-15-keto-PGE2 (351, 333, 18) and 15-keto-PGE2 (349, 161, 20). 15-keto-PGE2 and 13,14-dihydro-15-keto-PGE2 levels were quantified by determining peak areas in relation to internal standard PGE2-d4. Non-deuterated 15-keto-PGE2 and 13,14-dihydro-15-keto-PGE2 standards were used to confirm retention time and fragmentation.
All data fitting and statistical analysis performed using GraphPad Prism version 6.00 for Windows, GraphPad Software, La Jolla Calif. USA, www.graphpad.com. Statistical values including the exact n and statistical significance are also reported. Probe binding blockade and PTGR2 inhibition curves are plotted as mean±SD (n=3 or 4 per group) for a representative biological replicate using a variable slope (four parameter) non-linear fit. Gene expression data are presented as mean±SD (n=3 per group). HSC5 metabolite data are shown as mean±SD (n=3 per group). Statistical significance was defined as P<0.05 and determined by 2-tailed Student t tests, or two-way ANOVA with Bonferroni's post-tests.

cathepsin B (CTSB) = biological target: T1, cathepsin B (CTSB) (Homo sapiens, UniProt P07858); experiment: Mapping and competition of FFF probe-modified peptide on cathepsin B (CTSB); type: binding; settings: active-site proximal peptide
T1 construct: endogenous in cells; host or cells: HEK293T
Procedure: Preparation and analysis was adapted from methods previously reported. In brief, for global mapping of fragment probe-modified peptides, separate 10 cm dishes of cells were treated with probes (200-250 μM) in 3.0 mL of DMEM (serum-free) and (if applicable) competitor ligands, proteomes harvested and subjected to click chemistry conditions with either light or heavy isotopically labeled biotin-TEV-azide (10 μL of 5 mM stocks in DMSO, final concentration=100 μM), TCEP, ligand and CuSO4 as detailed above. The samples were allowed to react for 1 h at which point the samples were centrifuged (16,000 g, 5 min, 4° C.). The resulting pellets were sonicated in ice-cold methanol (500 μL) and the resuspended light- and heavy-labeled samples were then combined and centrifuged (16,000 g, 5 min, 4° C.). The pellets were then solubilized in PBS containing 1.2% SDS (1 mL) with sonication and heating (5 min, 95° C.). Samples were transferred to falcon tubes containing DPBS (5 mL), to which a 100 μL of streptavidin-agarose beads slurry was added. […]
The resulting probe-modified peptides were collected for MS analysis, which was performed as described above with differences in the salt bumps applied in the chromatographic gradients which in this case were 0%, 30%, 60%, 90% and 100% NH4OAc (500 μM). […] The isoTOP ratios for probe labeled peptides were quantified using the in-house software CIMAGE. […]

Chain of PTGR2 (Q8N8N7 whole entry): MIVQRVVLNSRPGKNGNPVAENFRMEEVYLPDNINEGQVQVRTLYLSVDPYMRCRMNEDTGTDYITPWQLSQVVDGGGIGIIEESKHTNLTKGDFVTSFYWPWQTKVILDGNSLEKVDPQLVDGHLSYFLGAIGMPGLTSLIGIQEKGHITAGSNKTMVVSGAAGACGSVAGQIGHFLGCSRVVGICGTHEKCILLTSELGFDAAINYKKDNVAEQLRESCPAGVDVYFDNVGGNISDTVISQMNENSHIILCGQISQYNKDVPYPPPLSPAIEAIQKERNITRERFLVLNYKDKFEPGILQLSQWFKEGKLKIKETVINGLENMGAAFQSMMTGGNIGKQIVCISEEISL

Row | SMILES | effect on 15-keto-PGE2 reductase (catalytic) activity of recombinant PTGR2 (PTGR2) | increased potency relative to 20 (PTGR2; in assays measuring either competition of 8-labeling or 15-keto-PGE2 reductase activity of recombinant PTGR2) [fold] | IC50 (PTGR2; recombinant PTGR2, read-out: IC50 for inhibition of PTGR2-mediated reduction of 15-keto-PGE2 (15-keto-PGE2 reductase activity)) [nM] | probe-modified peptide in CTSB (cathepsin B (CTSB))
1 | COc1ccccc1N1CCN(C(=O)Cc2ccccc2)CC1 [Compound 22, 1-(4-(2-Methoxyphenyl)piperazin-1-yl)-2-phenylethan-1-one] | inhibited | > 20 | 600 | 
2 | C#CCCC1(CCC(=O)Nc2ccc(C3CCNCC3)cc2)N=N1 [probe 9, 3-(3-(But-3-yn-1-yl)-3H-diazirin-3-yl)-N-(4-(piperidin-4-yl)phenyl)propanamide] |  |  |  | aa 315-332
